In the NIST ThermoML archive (doi:10.1016/j.fluid.2011.04.022):
± gives the expanded uncertainty stated by the source.

Conditions: Liquid, Vibrating tube method

FC(F)(F)CC(F)(F)F [1,1,1,3,3,3-hexafluoropropane]
mass density [kg/m3]
Conditions | 293.38 K | 303.23 K | 313.1 K | 322.94 K | 333.06 K | 343.19 K | 353.23 K | 363.22 K | 373.17 K
1000 kPa | 1380.41 ± 1.6 | 1346.41 ± 1.8 | 1310.15 ± 2 | 1272.73 ± 2.3 | 1230.59 ± 2.5 | – | – | – | –
3000 kPa | 1389.7 ± 1.6 | 1356.85 ± 1.7 | 1322.54 ± 1.9 | 1287.52 ± 2.1 | 1248.74 ± 2.4 | 1207.31 ± 2.8 | 1161.43 ± 3.2 | – | –
5000 kPa | 1398.14 ± 1.6 | 1366.62 ± 1.6 | 1333.75 ± 1.7 | 1300.71 ± 1.9 | 1264.58 ± 2 | 1226.45 ± 2.3 | 1185.57 ± 2.6 | 1140.64 ± 3 | 1091.26 ± 3.4
10000 kPa | 1417.22 ± 1.5 | 1388.23 ± 1.6 | 1358.32 ± 1.7 | 1328.74 ± 1.8 | 1297.09 ± 1.9 | 1264.58 ± 2 | 1230.77 ± 2.3 | 1195.26 ± 2.5 | 1158.13 ± 2.9
15000 kPa | 1434.22 ± 1.5 | 1407.04 ± 1.5 | 1379.33 ± 1.6 | 1352.16 ± 1.6 | 1323.56 ± 1.7 | 1294.29 ± 1.8 | 1264.63 ± 1.9 | 1233.73 ± 2.1 | 1202.21 ± 2.2
20000 kPa | 1449.45 ± 1.5 | 1423.79 ± 1.5 | 1397.77 ± 1.5 | 1372.4 ± 1.6 | 1345.92 ± 1.6 | 1319.04 ± 1.7 | 1292.08 ± 1.8 | 1264.17 ± 1.8 | 1236.05 ± 1.9
25000 kPa | 1463.39 ± 1.5 | 1438.88 ± 1.5 | 1414.16 ± 1.5 | 1390.33 ± 1.6 | 1365.48 ± 1.6 | 1340.43 ± 1.6 | 1315.3 ± 1.7 | 1289.66 ± 1.7 | 1263.9 ± 1.8
30000 kPa | 1476.18 ± 1.5 | 1452.75 ± 1.5 | 1429.13 ± 1.5 | 1406.5 ± 1.6 | 1382.82 ± 1.6 | 1359.27 ± 1.6 | 1335.89 ± 1.6 | 1311.7 ± 1.6 | 1287.72 ± 1.7
35000 kPa | 1488.18 ± 1.6 | 1465.54 ± 1.6 | 1442.8 ± 1.6 | 1421.01 ± 1.6 | 1398.61 ± 1.6 | 1376.24 ± 1.6 | 1354.11 ± 1.6 | 1331.22 ± 1.6 | 1308.62 ± 1.6
40000 kPa | 1499.36 ± 1.6 | 1477.52 ± 1.6 | 1455.53 ± 1.6 | 1434.57 ± 1.6 | 1413.18 ± 1.6 | 1391.75 ± 1.6 | 1370.58 ± 1.6 | 1348.77 ± 1.6 | 1327.34 ± 1.6
50000 kPa | 1519.84 ± 1.7 | 1499.35 ± 1.7 | 1478.52 ± 1.7 | 1459.05 ± 1.7 | 1439.06 ± 1.7 | 1419.24 ± 1.6 | 1399.7 ± 1.6 | 1379.54 ± 1.6 | 1359.88 ± 1.6
60000 kPa | 1538.35 ± 1.9 | 1518.78 ± 1.9 | 1499.21 ± 1.8 | 1480.75 ± 1.8 | 1461.86 ± 1.8 | 1443.29 ± 1.8 | 1424.96 ± 1.7 | 1406.01 ± 1.7 | 1387.66 ± 1.7
70000 kPa | 1555.2 ± 2.1 | 1536.58 ± 2 | 1517.63 ± 2 | 1500.21 ± 2 | 1482.19 ± 1.9 | 1464.6 ± 1.9 | 1447.34 ± 1.9 | 1429.34 ± 1.8 | 1412.03 ± 1.8
